Measurements published in ChEMBL document CHEMBL3046521, “Synthesis and antitumor activity of (4-hydroxyphenyl)[5-substituted alkyl/aryl)-2-thioxo-1,3,4-thiadiazol-3-yl]methanone and [(3,4-disubstituted)-1,3-thiazol-2ylidene]-4-hydroxybenzohydrazide” (2011).

Tests used:
Assay type in all cases: functional
T47D = assay: Cytotoxicity against Homo sapiens (human) T47D cells after 48 hr by sulforhodamine B assay
SK-MEL-2 = assay: Cytotoxicity against Homo sapiens (human) SK-MEL-2 cells after 48 hr by sulforhodamine B assay; settings: SK-MEL-2, 48 h
SK-MEL-5 = assay: Cytotoxicity against Homo sapiens (human) SK-MEL-5 cells after 48 hr by sulforhodamine B assay; settings: SK-MEL-5, 48 h
HOP-62 = assay: Cytotoxicity against Homo sapiens (human) HOP62 cells after 48 hr by sulforhodamine B assay; settings: HOP-62, 48 h
TK-10 = assay: Cytotoxicity against Homo sapiens (human) TK10 cells after 48 hr by sulforhodamine B assay; settings: TK-10, 48 h
HCT-116 = assay: Cytotoxicity against Homo sapiens (human) HCT116 cells after 48 hr by sulforhodamine B assay; settings: HCT-116, 48 h
Malme-3M = assay: Cytotoxicity against Homo sapiens (human) MALME-3M cells after 48 hr by sulforhodamine B assay
PC-3 = assay: Cytotoxicity against Homo sapiens (human) PC3 cells after 48 hr by sulforhodamine B assay; settings: PC-3, 48 h
MDA-MB-468 = assay: Cytotoxicity against Homo sapiens (human) MDA-MB-468 cells after 48 hr by sulforhodamine B assay; settings: MDA-MB-468, 48 h
HT-29 = assay: Cytotoxicity against Homo sapiens (human) HT-29 cells after 48 hr by sulforhodamine B assay; settings: HT-29, 48 h
NCI-H522 = assay: Cytotoxicity against Homo sapiens (human) NCI-H522 cells after 48 hr by sulforhodamine B assay; settings: NCI-H522, 48 h
HCT-15 = assay: Cytotoxicity against Homo sapiens (human) HCT15 cells after 48 hr by sulforhodamine B assay; settings: HCT-15, 48 h
NCI-H23 = assay: Cytotoxicity against Homo sapiens (human) NCI-H23 cells after 48 hr by sulforhodamine B assay; settings: NCI-H23, 48 h
SW-620 = assay: Cytotoxicity against Homo sapiens (human) SW620 cells after 48 hr by sulforhodamine B assay; settings: SW-620, 48 h
MDA-MB-435 = assay: Cytotoxicity against Homo sapiens (human) MDA-MB-435 cells after 48 hr by sulforhodamine B assay; settings: MDA-MB-435, 48 h
HOP-92 = assay: Cytotoxicity against Homo sapiens (human) HOP92 cells after 48 hr by sulforhodamine B assay; settings: HOP-92, 48 h
UACC-257 = assay: Cytotoxicity against Homo sapiens (human) UACC257 cells after 48 hr by sulforhodamine B assay; settings: UACC-257, 48 h
HCC 2998 [1] = assay: Anticancer activity in Homo sapiens (human) HCC2998 cells assessed as cell growth at 10^-5 M after 48 hr by SRB assay; settings: HCC 2998, 48 h, read-out: Activity
OVCAR-3 = assay: Cytotoxicity against Homo sapiens (human) OVCAR3 cells after 48 hr by sulforhodamine B assay; settings: OVCAR-3, 48 h
ACHN = assay: Cytotoxicity against Homo sapiens (human) ACHN cells after 48 hr by sulforhodamine B assay
K562 = assay: Cytotoxicity against Homo sapiens (human) K562 cells after 48 hr by sulforhodamine B assay; settings: K562, 48 h
MCF7 = assay: Cytotoxicity against Homo sapiens (human) MCF7 cells after 48 hr by sulforhodamine B assay; settings: MCF7, 48 h
MDA-MB-231 = assay: Cytotoxicity against Homo sapiens (human) MDA-MB-231 cells after 48 hr by sulforhodamine B assay; settings: MDA-MB-231, 48 h
U-251 = assay: Cytotoxicity against Homo sapiens (human) U251 cells after 48 hr by sulforhodamine B assay; settings: U-251, 48 h
BT-549 = assay: Cytotoxicity against Homo sapiens (human) BT549 cells after 48 hr by sulforhodamine B assay; settings: BT-549, 48 h
IGROV-1 = assay: Cytotoxicity against Homo sapiens (human) IGROV1 cells after 48 hr by sulforhodamine B assay; settings: IGROV-1, 48 h
786-0 = assay: Cytotoxicity against Homo sapiens (human) 786-0 cells after 48 hr by sulforhodamine B assay; settings: 786-0, 48 h
HCC 2998 [2] = assay: Cytotoxicity against Homo sapiens (human) HCC2998 cells after 48 hr by sulforhodamine B assay; settings: HCC 2998, 48 h
RXF 393 = assay: Cytotoxicity against Homo sapiens (human) RXF393 cells after 48 hr by sulforhodamine B assay; settings: RXF 393, 48 h

O=C(c1ccc(O)cc1)n1nc(-c2c(Cl)cccc2Cl)sc1=S
GI50 (T47D): 3.89 µM
LC50 (T47D): > 100 µM
TGI (T47D; read-out: pTGI (converted)): 32.4 µM
GI50 (SK-MEL-2): 14.5 µM
LC50 (SK-MEL-2): 95.5 µM
TGI (SK-MEL-2; read-out: pTGI (converted)): 37.2 µM
GI50 (SK-MEL-5): 10.7 µM
LC50 (SK-MEL-5): 56.2 µM
TGI (SK-MEL-5; read-out: pTGI (converted)): 24.5 µM
GI50 (HOP-62): 18.6 µM
LC50 (HOP-62): > 100 µM
TGI (HOP-62; read-out: pTGI (converted)): 43.7 µM
GI50 (TK-10): 4.47 µM
LC50 (TK-10): > 100 µM
TGI (TK-10; read-out: pTGI (converted)): 42.7 µM
GI50 (HCT-116): 10.7 µM
LC50 (HCT-116): 52.5 µM
TGI (HCT-116; read-out: pTGI (converted)): 24 µM
GI50 (Malme-3M): 29.5 µM
LC50 (Malme-3M): > 100 µM
TGI (Malme-3M; read-out: pTGI (converted)): 49 µM
GI50 (PC-3): 3.31 µM
LC50 (PC-3): > 100 µM
TGI (PC-3; read-out: pTGI (converted)): 30.2 µM
GI50 (MDA-MB-468): 8.71 µM
LC50 (MDA-MB-468): > 100 µM
TGI (MDA-MB-468; read-out: pTGI (converted)): 91.2 µM
GI50 (HT-29): 8.32 µM
LC50 (HT-29): 53.7 µM
TGI (HT-29; read-out: pTGI (converted)): 22.9 µM
GI50 (NCI-H522): 11.7 µM
LC50 (NCI-H522): > 100 µM
TGI (NCI-H522; read-out: pTGI (converted)): 41.7 µM
GI50 (HCT-15): 6.46 µM
LC50 (concentration killing 50% of cells) (HCT-15): > 100 µM
TGI (HCT-15; read-out: pTGI (converted)): 32.4 µM
GI50 (NCI-H23): 12.6 µM
LC50 (NCI-H23): > 100 µM
TGI (NCI-H23; read-out: pTGI (converted)): 53.7 µM
GI50 (SW-620): 12 µM
LC50 (SW-620): 87.1 µM
TGI (SW-620; read-out: pTGI (converted)): 31.6 µM
GI50 (MDA-MB-435): 3.72 µM
LC50 (MDA-MB-435): > 100 µM
TGI (MDA-MB-435; read-out: pTGI (converted)): 31.6 µM
GI50 (HOP-92): 0.324 µM
LC50 (HOP-92): 43.7 µM
TGI (HOP-92; read-out: pTGI (converted)): 7.76 µM
GI50 (UACC-257): 14.1 µM
LC50 (UACC-257): > 100 µM
TGI (UACC-257; read-out: pTGI (converted)): 41.7 µM
growth at 10 µM (HCC 2998 [1]): 17.1%
GI50 (OVCAR-3): 6.17 µM
LC50 (OVCAR-3): 67.6 µM
TGI (OVCAR-3; read-out: pTGI (converted)): 28.8 µM
GI50 (ACHN): 7.76 µM
LC50 (ACHN): > 100 µM
TGI (ACHN; read-out: pTGI (converted)): 41.7 µM
GI50 (K562): 3.39 µM
LC50 (K562): > 100 µM
TGI (K562; read-out: pTGI (converted)): 28.8 µM
GI50 (MCF7): 11.5 µM
LC50 (MCF7): 87.1 µM
TGI (MCF7; read-out: pTGI (converted)): 32.4 µM
GI50 (MDA-MB-231): 13.2 µM
LC50 (MDA-MB-231): > 100 µM
TGI (MDA-MB-231; read-out: pTGI (converted)): 60.3 µM
GI50 (U-251): 11.5 µM
LC50 (U-251): 91.2 µM
TGI (U-251; read-out: pTGI (converted)): 32.4 µM
GI50 (BT-549): 28.8 µM
LC50 (BT-549): > 100 µM
TGI (BT-549; read-out: pTGI (converted)): 60.3 µM
GI50 (IGROV-1): 12.9 µM
LC50 (IGROV-1): > 100 µM
TGI (IGROV-1; read-out: pTGI (converted)): 89.1 µM
GI50 (786-0): 2.34 µM
LC50 (786-0): 53.7 µM
TGI (786-0; read-out: pTGI (converted)): 17 µM
GI50 (HCC 2998 [2]): 4.9 µM
LC50 (HCC 2998 [2]): > 100 µM
TGI (HCC 2998 [2]; read-out: pTGI (converted)): 28.8 µM
GI50 (RXF 393): 17.4 µM
LC50 (RXF 393): > 100 µM
TGI (RXF 393; read-out: pTGI (converted)): 51.3 µM
